# Test results: US20260373156A1, “CANCER TREATMENTS USING MTA-COOPERATIVE PRMT5 INHIBITORS” (AMGEN INC., priority 2022, published 2026)
# Tests used:
# [1] = test system: SUM149PT cells; test: CellTiter-Glo viability and CalcuSyn synergy, PRMT5 inhibitor + olaparib, 6 days; assay type: cell-based; details: for Combination Fa: 8640 min
# Method: Raw luminescent values were converted to fraction affected (Fa) with the following equation: […]
# Synergy analysis was performed using the CalcuSyn software to determine CI scores based on the drug concentrations used and corresponding Fa values. Results are shown in Tables 1-3 below. *CI Values (Calcusyn): Strong Synergism: 0.1-0.3; Synergism: 0.3-0.7; Moderate Synergism: 0.7-0.85; Slight Synergism: 0.85-0.9; Nearly Additive: 0.9-1.1.
# [2] = test system: LU99 NSCLC xenografts; test: Tumor growth inhibition, LU99 NSCLC xenografts (Example 12); assay type: in vivo, Female NOD/SCID mice; details: Compound B 100 mg/kg orally once daily + sotorasib 100 mg/kg; versus either single agent alone
# Text: 10 Female NOD/SCID mice were implanted with LU99 NSCLC tumor xenografts. Mean tumor volumes for each grouping were between 100-200 mm^3. […] Plotted data represents the TGI (tumor growth inhibition), n=10 for each group.
# [3] = test system: A549 cells; test: CellTiter-Glo viability and CalcuSyn synergy, PRMT5 inhibitor + trametinib, 6 days; details: for Combination Fa: 8640 min
# [4] = test system: MIAPACA2T2 cells; test: as above; details: for Combination Fa: 8640 min
# [5] = test system: H292 cells; test: CellTiter-Glo viability and CalcuSyn synergy, PRMT5 inhibitor + palbociclib, 6 days; details: for Combination Fa: 8640 min
# [6] = test system: A549 cells; test: as above; details: for Combination Fa: 8640 min
# [7] = test system: A549 cells; test: CellTiter-Glo viability and CalcuSyn synergy, PRMT5 inhibitor + KRAS G12X inhibitor, 6 days; details: for Combination Fa: 8640 min
# [8] = Compound B 0.277008 μM + olaparib 0.103573 μM
# [9] = Compound B 0.277008 μM + olaparib 0.176074 μM
# [10] = Compound B 0.277008 μM + olaparib 0.299326 μM
# [11] = Compound B 0.277008 μM + olaparib 0.508854 μM
# [12] = Compound B 0.277008 μM + olaparib 0.865052 μM
# [13] = Compound B 0.277008 μM + olaparib 1.47059 μM
# [14] = Compound B 0.277008 μM + olaparib 2.5 μM
# [15] = Compound B 0.0425 μM + trametinib 0.000213 μM
# [16] = Compound B 0.0425 μM + trametinib 0.000404 μM
# [17] = Compound B 0.0425 μM + trametinib 0.000767 μM
# [18] = Compound B 0.0425 μM + trametinib 0.001458 μM
# [19] = Compound B 0.0425 μM + trametinib 0.00277 μM
# [20] = Compound B 0.0425 μM + trametinib 0.005263 μM
# [21] = Compound B 0.0425 μM + trametinib 0.01 μM
# [22] = Compound B 0.437381 μM + trametinib 0.00101 μM
# [23] = Compound B 0.437381 μM + trametinib 0.001918 μM
# [24] = Compound B 0.437381 μM + trametinib 0.003645 μM
# [25] = Compound B 0.437381 μM + trametinib 0.00531 μM
# [26] = Compound B 0.437381 μM + trametinib 0.006925 μM
# [27] = Compound B 0.437381 μM + trametinib 0.013158 μM
# [28] = Compound B 0.437381 μM + trametinib 0.025 μM
# [29] = Compound B 0.0425 μM + palbociclib 0.044102 μM
# [30] = Compound B 0.0425 μM + palbociclib 0.079383 μM
# [31] = Compound B 0.0425 μM + palbociclib 0.14289 μM
# [32] = Compound B 0.0425 μM + palbociclib 0.257202 μM
# [33] = Compound B 0.0425 μM + palbociclib 0.462963 μM
# [34] = Compound B 0.0425 μM + palbociclib 0.833333 μM
# [35] = Compound B 0.0425 μM + palbociclib 1.5 μM
# [36] = Compound B 0.1535 μM + palbociclib 0.298023 μM
# [37] = Compound B 0.1535 μM + palbociclib 0.476837 μM
# [38] = Compound B 0.1535 μM + palbociclib 0.762939 μM
# [39] = Compound B 0.1535 μM + palbociclib 1.2207 μM
# [40] = Compound B 0.1535 μM + palbociclib 1.95313 μM
# [41] = Compound B 0.1535 μM + palbociclib 3.125 μM
# [42] = Compound B 0.1535 μM + palbociclib 5 μM
# [43] = Compound B 0.0808 μM + KRAS G12X inhibitor 0.010628 μM
# [44] = Compound B 0.0808 μM + KRAS G12X inhibitor 0.020193 μM
# [45] = Compound B 0.0808 μM + KRAS G12X inhibitor 0.038367 μM
# [46] = Compound B 0.0808 μM + KRAS G12X inhibitor 0.072897 μM
# [47] = Compound B 0.0808 μM + KRAS G12X inhibitor 0.138504 μM
# [48] = Compound B 0.0808 μM + KRAS G12X inhibitor 0.263158 μM
# [49] = Compound B 0.0808 μM + KRAS G12X inhibitor 0.5 μM
smiles,measurement,setting,value
Cc1cc2cc(C(=O)N(Cc3ccc(C(F)(F)F)cn3)[C@@H](C)c3ncccn3)ccc2nc1N [Compound B],Computed CI value,[1]; [8],0.618
same,Combination Fa,[1]; [8],0.747
same,Computed CI value,[1]; [9],0.579
same,Combination Fa,[1]; [9],0.769
same,Computed CI value,[1]; [10],0.777
same,Combination Fa,[1]; [10],0.745
same,Computed CI value,[1]; [11],0.582
same,Combination Fa,[1]; [11],0.813
same,Computed CI value,[1]; [12],0.565
same,Combination Fa,[1]; [12],0.849
same,Computed CI value,[1]; [13],0.543
same,Combination Fa,[1]; [13],0.888
same,Computed CI value,[1]; [14],0.504
same,Combination Fa,[1]; [14],0.925
same,anti-tumor activity,[2],significant anti-tumor activity versus either single agent alone
same,Computed CI value,[3]; [15],0.569
same,Combination Fa,[3]; [15],0.4457
same,Computed CI value,[3]; [16],0.514
same,Combination Fa,[3]; [16],0.5278
same,Computed CI value,[3]; [17],0.5
same,Combination Fa,[3]; [17],0.6046
same,Computed CI value,[3]; [18],0.506
same,Combination Fa,[3]; [18],0.6769
same,Computed CI value,[3]; [19],0.452
same,Combination Fa,[3]; [19],0.7607
same,Computed CI value,[3]; [20],0.357
same,Combination Fa,[3]; [20],0.8409
same,Computed CI value,[3]; [21],0.589
same,Combination Fa,[3]; [21],0.8482
same,Computed CI value,[4]; [22],0.675
same,Combination Fa,[4]; [22],0.6193
same,Computed CI value,[4]; [23],0.555
same,Combination Fa,[4]; [23],0.6852
same,Computed CI value,[4]; [24],0.674
same,Combination Fa,[4]; [24],0.7091
same,Computed CI value,[4]; [25],0.775
same,Combination Fa,[4]; [25],0.5757
same,Computed CI value,[4]; [26],0.557
same,Combination Fa,[4]; [26],0.797
same,Computed CI value,[4]; [27],0.651
same,Combination Fa,[4]; [27],0.8405
same,Computed CI value,[4]; [28],1.099
same,Combination Fa,[4]; [28],0.8474
same,Computed CI value,[5]; [29],0.421
same,Combination Fa,[5]; [29],0.6807
same,Computed CI value,[5]; [30],0.403
same,Combination Fa,[5]; [30],0.7009
same,Computed CI value,[5]; [31],0.284
same,Combination Fa,[5]; [31],0.7704
same,Computed CI value,[5]; [32],0.308
same,Combination Fa,[5]; [32],0.7959
same,Computed CI value,[5]; [33],0.395
same,Combination Fa,[5]; [33],0.8126
same,Computed CI value,[5]; [34],0.587
same,Combination Fa,[5]; [34],0.8205
same,Computed CI value,[5]; [35],0.878
same,Combination Fa,[5]; [35],0.8344
same,Computed CI value,[6]; [36],0.293
same,Combination Fa,[6]; [36],0.6994
same,Computed CI value,[6]; [37],0.341
same,Combination Fa,[6]; [37],0.7105
same,Computed CI value,[6]; [38],0.497
same,Combination Fa,[6]; [38],0.7007
same,Computed CI value,[6]; [39],0.421
same,Combination Fa,[6]; [39],0.7619
same,Computed CI value,[6]; [40],0.626
same,Combination Fa,[6]; [40],0.761
same,Computed CI value,[6]; [41],0.685
same,Combination Fa,[6]; [41],0.7958
same,Computed CI value,[6]; [42],0.377
same,Combination Fa,[6]; [42],0.8818
same,Computed CI value,[7]; [43],0.38
same,Combination Fa,[7]; [43],0.5945
same,Computed CI value,[7]; [44],0.366
same,Combination Fa,[7]; [44],0.6255
same,Computed CI value,[7]; [45],0.247
same,Combination Fa,[7]; [45],0.7012
same,Computed CI value,[7]; [46],0.284
same,Combination Fa,[7]; [46],0.7187
same,Computed CI value,[7]; [47],0.27
same,Combination Fa,[7]; [47],0.7582
same,Computed CI value,[7]; [48],0.409
same,Combination Fa,[7]; [48],0.7615
same,Computed CI value,[7]; [49],0.503
same,Combination Fa,[7]; [49],0.7849
